These results are taken from patent US9006210B2, “Compositions and methods for treating corneal inflammation” (Case Western Reserve University, priority 2008, dated 2015).

“Also recorded” adds a separate entry of the source.

Series [1] concerns the target T1, TLR4 (Mus musculus, UniProt Q9JHF9+Q9QUK6).
T1 construct: Corneas of C57BL/6 mice were abraded with three parallel, superficial scratches; from tissue; host or cells: cornea of living C57BL/6 mice
T1 sequence (Q9QUK6 26-835): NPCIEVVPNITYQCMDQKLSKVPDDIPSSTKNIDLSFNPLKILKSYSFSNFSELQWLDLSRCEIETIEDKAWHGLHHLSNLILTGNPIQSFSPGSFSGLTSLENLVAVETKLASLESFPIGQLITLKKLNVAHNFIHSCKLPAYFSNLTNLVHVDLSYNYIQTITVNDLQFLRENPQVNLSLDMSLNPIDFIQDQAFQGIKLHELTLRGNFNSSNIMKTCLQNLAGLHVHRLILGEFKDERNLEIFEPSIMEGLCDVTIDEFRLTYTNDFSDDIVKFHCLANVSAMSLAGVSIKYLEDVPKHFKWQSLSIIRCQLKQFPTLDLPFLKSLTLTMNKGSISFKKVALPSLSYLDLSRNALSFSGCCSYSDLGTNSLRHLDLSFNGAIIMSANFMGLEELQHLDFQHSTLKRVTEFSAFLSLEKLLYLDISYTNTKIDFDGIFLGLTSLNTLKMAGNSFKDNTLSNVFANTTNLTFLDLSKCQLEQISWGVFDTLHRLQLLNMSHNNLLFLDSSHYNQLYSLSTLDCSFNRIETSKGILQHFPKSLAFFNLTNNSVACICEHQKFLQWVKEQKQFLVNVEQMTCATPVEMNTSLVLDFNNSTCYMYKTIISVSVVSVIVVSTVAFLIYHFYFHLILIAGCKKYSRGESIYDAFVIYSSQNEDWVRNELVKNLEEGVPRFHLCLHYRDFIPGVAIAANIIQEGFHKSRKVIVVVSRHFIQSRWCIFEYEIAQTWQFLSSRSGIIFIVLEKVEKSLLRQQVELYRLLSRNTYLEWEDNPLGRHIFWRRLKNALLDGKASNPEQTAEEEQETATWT
T1 sequence (Q9JHF9 19-160): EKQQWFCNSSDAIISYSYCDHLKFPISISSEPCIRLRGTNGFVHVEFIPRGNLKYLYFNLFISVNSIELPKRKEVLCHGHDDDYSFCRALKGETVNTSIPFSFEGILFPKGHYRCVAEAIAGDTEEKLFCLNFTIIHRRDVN
Further details: species or system C57BL/6 mice. The settings on record: in vivo.
Method: (§5) C57BL/6 mice (6-8 weeks old) were obtained from The Jackson Laboratory (Bar Harbor, Me.). Mice were anesthetized by intraperitoneal injection of 0.4 ml 2,2,2-tribromoethanol (TBE). A 26 gauge needle was used to make three parallel abrasions in the corneal epithelium as described in our previous studies. Eritoran tetrasodium or placebo at concentrations indicated for each experiment was added topically, and a 2 mm diameter punch from a normal contact lens (LOTRAFILCON A; CIBA VISION) was added to the corneal surface (See FIG. 1). After an additional 1 h, the lens was briefly removed, and 2 μl LPS (20 mg/ml) or Pam3Cys (5 mg/ml) was placed on the corneal surface. The contact lens button was then replaced, and after an additional 1 h, the lens was removed and the mice were allowed to recover from anesthesia. In some experiments, the order of agonist and antagonist was reversed, or both were given simultaneously.
Briefly, Corneas of C57BL/6 mice were abraded with three parallel, superficial scratches. 2 μl of 350 mg/ml Eritoran or placebo was added topically, and a 2 mm diameter punch from a soft contact lens was placed on the corneal surface as shown in FIG. 1. […] After 1 h, the lens was removed, and 3 h later (4 h after stimulation), and corneas were dissected, homogenized, and CXCL1/KC was measured by ELISA.

For series [2], the target named is T2, TLR2 (Mus musculus, UniProt Q9QUN7).
T2 construct: Corneas of C57BL/6 mice were abraded with three parallel, superficial scratches; from tissue; host or cells: cornea of living C57BL/6 mice
Nature of the series: Pam3Cys-induced CXCL1/KC production in the cornea, mouse contact lens model. The settings on record: topical pre-treatment 1 h before Pam3Cys; ELISA 4 h after stimulation; vs placebo. The class given is in vivo, C57BL/6 mice.
Method: as §5
Briefly, Corneas of C57BL/6 mice were abraded with three parallel, superficial scratches. 2 μl of 350 mg/ml Eritoran or placebo was added topically, and a 2 mm diameter punch from a soft contact lens was placed on the corneal surface as shown in FIG. 1. […] After 1 h, the lens was removed, and 3 h later (4 h after stimulation), and corneas were dissected, homogenized, and CXCL1/KC was measured by ELISA. […]

In series [3] the target is T1, TLR4. Further details: species or system C57BL/6 mice. The note with it: in vivo. The source holds these as a separate data set.
In series [4] the target is T2, TLR2. Nature of the series: Pam3Cys-induced contact lens corneal inflammation (neutrophil infiltrate, reflectivity). The series is classed as in vivo, C57BL/6 mice.
The subject of another series is corneal epithelium. On the procedure: The cell viability in vitro was measured by trypan blue. The corneal sections were incubated with terminal deoxynucleotidyl transferase-mediated dUTP nick end labeling (TUNEL) reagents according to manufacturer's directions (Roche, Penzberg, Germany), and the number of TUNEL positive cells in the cornea was quantified by fluorescence microscopy.
Mice were pre-treated with 2.2 μg eritoran tetrasodium prior to LPS, as described above, and eyes were snap frozen. We used a TUNEL assay on 5 μm corneal sections to identify apoptotic cells. Total cells were identified using DAPI.

In series [5] the target is T3, TLR2 (Homo sapiens, UniProt O60603).
T3 construct: endogenous in cells; host or cells: HCE-T human corneal epithelial cell line (ATCC)
Nature of the series: Pam3Cys-induced IL-8 production by human corneal epithelial cells (HCE-T). The note with it: 500 ng/ml Pam3Cys, 24 h. The class given is cell-based. As to the method:
(§1) The SV-40 transfected human corneal epithelial cell line (HCE-T) was obtained from ATCC. Before stimulation, HCE cells were plated into 48 well plates and underwent epidermal growth factor starvation overnight. As HCE cells require exogenous MD-2 to respond to LPS, cells were incubated 1 h with 200 ng/ml recombinant human MD-2 (R&D Systems, Minneapolis, Minn.) prior to stimulation with ultrapure LPS (TLR4-specific, Escherichia coli K12, Invivogen; San Diego, Calif.). HCE cells were also incubated with Pam3CysK4 (EMC Microcollections, Germany) in the absence of MD-2.
(§2) All cells were incubated with eritoran or placebo, followed by stimulation with LPS or Pam3CysK4 at optimal concentrations for each cells line (noted in results). After 3 h, cell-free supernatants were collected, and CXCL8/IL-8 was measured by ELISA (R&D Systems).
Cell lines derived from human corneal epithelial cells (HCE-T), macrophages (U937) and neutrophils (HL-60) were stimulated with LPS or Pam3Cys in the presence of eritoran tetrasodium or placebo. After 3 h (U937 and HL-60 cells) or 24 h (HCE-T cell), IL-8 levels in culture supernatants were quantified by ELISA. […] FIGS. 16 and 17 show macrophages stimulated with 10 ng/ml LPS or 500 ng/ml Pam3Cys in the presence of Eritoran or placebo. FIGS. 18 and 19 show neutrophils stimulated with 1 ng/ml LPS or 500 ng/ml Pam3Cys and Eritoran or placebo. […]

In series [6] the target is T3, TLR2. Nature of the series: Pam3Cys-induced IL-8 production by macrophages (U937). The class given is cell-based. The settings on record: 500 ng/ml Pam3Cys, 3 h. As to the method: (§3) The U937 macrophage-cell line was cultured in RPMI medium (GIBCO) with 10% FBS, and 5×10^4 cells/well were added to 96-well plates. The human neutrophil-like cell line (HL-60) was maintained in RPMI with 10% FBS, and incubated five days in 1.2% DMSO to generate the neutrophil phenotype.
as §2
(§4) Cell lines derived from human corneal epithelial cells (HCE-T), macrophages (U937) and neutrophils (HL-60) were stimulated with LPS or Pam3Cys in the presence of eritoran tetrasodium or placebo. After 3 h (U937 and HL-60 cells) or 24 h (HCE-T cell), IL-8 levels in culture supernatants were quantified by ELISA. […] FIGS. 16 and 17 show macrophages stimulated with 10 ng/ml LPS or 500 ng/ml Pam3Cys in the presence of Eritoran or placebo. FIGS. 18 and 19 show neutrophils stimulated with 1 ng/ml LPS or 500 ng/ml Pam3Cys and Eritoran or placebo. LPS concentrations were based on preliminary data showing optimal IL-8 production. […] Graphs are mean+/−SEM of three wells per sample. Experiments were repeated three times with similar results.

For series [7], the target named is T3, TLR2. Briefly: Pam3Cys-induced IL-8 production by neutrophils (HL-60). The series is classed as cell-based. The settings on record: HL-60 neutrophils; 500 ng/ml Pam3Cys; 3 h. As to the method: as §3, §2, §4
A further series addresses T4, TLR4/MD-2 (Mus musculus, UniProt Q9JHF9+Q9QUK6).
T4 construct: from tissue; host or cells: cornea of living C57BL/6 mice
T4 sequence (Q9QUK6 26-835): T1 sequence (Q9QUK6 26-835)
T4 sequence (Q9JHF9 19-160): T1 sequence (Q9JHF9 19-160)
Also on record: species or system C57BL/6 mice. The note with it: in vivo.

The target in series [8] is T5, TLR4 (Homo sapiens, UniProt O00206+Q9Y6Y9). Briefly: LPS-induced IL-8 production by macrophages (U937). The class given is cell-based. Further details: endogenous in cells. The note with it: for LPS-induced IL-8 production: U937 macrophages, 10 ng/ml LPS, 3 h. As to the method:
as §3, §2, §4

Series [9] deals with T5, TLR4. Briefly: LPS-induced IL-8 production by human corneal epithelial cells (HCE-T). The series is classed as cell-based. Also on record: endogenous in cells; host or cells: HL-60 (five days in 1.2% DMSO). The note with it: for LPS-induced IL-8 production: HCE-T cells, 900 ng/ml LPS with 0.2 μg/ml MD-2, 24 h, ELISA. As to the method:
as §1, §2, §4

Series [10] concerns the target T5, TLR4. Briefly: LPS-induced IL-8 production by neutrophils (HL-60). The class given is cell-based. Further details: endogenous in cells; host or cells: HL-60 (five days in 1.2% DMSO). The settings on record: for LPS-induced IL-8 production: HL-60 neutrophils, 1 ng/ml LPS, 3 h. As to the method: as §3, §2, §4
Another series concerns Gram negative Lipid A. The settings on record: cited from earlier work.
Where [11] appears, read: pretreatment with the highest concentration, Pam3Cys stimulation.

T2 sequence (Q9QUN7 25-784): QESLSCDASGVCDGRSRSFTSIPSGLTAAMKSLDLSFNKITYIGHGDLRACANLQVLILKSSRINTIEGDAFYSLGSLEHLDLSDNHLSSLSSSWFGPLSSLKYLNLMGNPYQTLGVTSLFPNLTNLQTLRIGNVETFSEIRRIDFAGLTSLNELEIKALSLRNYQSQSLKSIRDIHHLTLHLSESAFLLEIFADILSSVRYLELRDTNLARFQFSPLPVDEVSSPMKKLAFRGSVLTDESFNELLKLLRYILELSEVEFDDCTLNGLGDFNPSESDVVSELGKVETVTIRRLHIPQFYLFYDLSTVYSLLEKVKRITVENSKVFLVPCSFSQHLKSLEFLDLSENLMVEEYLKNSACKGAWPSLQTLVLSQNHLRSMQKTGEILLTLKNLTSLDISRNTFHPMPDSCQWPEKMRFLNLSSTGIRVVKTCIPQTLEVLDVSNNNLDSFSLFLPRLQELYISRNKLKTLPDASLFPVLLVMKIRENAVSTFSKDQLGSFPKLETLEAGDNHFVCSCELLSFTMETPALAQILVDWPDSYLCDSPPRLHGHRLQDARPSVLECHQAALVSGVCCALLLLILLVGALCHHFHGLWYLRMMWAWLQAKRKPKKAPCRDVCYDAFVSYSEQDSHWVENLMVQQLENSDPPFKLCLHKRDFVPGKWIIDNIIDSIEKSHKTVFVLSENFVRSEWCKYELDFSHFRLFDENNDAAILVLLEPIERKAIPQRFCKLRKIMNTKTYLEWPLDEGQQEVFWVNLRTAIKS
T5 sequence (O00206 24-839): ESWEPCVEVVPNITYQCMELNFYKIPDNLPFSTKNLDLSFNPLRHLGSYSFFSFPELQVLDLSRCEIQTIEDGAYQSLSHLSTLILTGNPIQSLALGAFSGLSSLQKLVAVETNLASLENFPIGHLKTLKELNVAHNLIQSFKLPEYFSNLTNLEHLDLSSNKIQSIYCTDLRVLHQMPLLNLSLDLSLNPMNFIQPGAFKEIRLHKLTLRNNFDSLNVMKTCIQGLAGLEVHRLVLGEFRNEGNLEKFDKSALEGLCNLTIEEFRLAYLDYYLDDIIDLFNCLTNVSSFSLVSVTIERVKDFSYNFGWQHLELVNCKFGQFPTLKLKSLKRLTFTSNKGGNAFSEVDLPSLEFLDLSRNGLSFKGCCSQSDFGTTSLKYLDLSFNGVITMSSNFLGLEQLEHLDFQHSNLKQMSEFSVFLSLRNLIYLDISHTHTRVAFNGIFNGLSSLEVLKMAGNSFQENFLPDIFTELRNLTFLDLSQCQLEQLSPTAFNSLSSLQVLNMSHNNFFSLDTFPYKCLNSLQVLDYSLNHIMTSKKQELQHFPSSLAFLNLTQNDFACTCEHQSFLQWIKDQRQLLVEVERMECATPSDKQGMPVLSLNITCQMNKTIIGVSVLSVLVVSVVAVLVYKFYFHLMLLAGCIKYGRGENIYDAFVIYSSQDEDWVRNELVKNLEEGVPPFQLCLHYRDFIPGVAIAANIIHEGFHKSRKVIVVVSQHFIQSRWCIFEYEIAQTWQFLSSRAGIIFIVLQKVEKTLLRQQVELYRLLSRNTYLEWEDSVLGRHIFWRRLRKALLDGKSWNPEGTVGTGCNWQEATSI
T5 sequence (Q9Y6Y9 19-160): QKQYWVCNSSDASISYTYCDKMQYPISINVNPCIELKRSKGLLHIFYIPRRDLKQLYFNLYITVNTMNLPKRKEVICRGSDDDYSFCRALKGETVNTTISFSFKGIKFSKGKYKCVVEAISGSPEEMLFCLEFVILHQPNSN
T3 sequence (O60603 21-784): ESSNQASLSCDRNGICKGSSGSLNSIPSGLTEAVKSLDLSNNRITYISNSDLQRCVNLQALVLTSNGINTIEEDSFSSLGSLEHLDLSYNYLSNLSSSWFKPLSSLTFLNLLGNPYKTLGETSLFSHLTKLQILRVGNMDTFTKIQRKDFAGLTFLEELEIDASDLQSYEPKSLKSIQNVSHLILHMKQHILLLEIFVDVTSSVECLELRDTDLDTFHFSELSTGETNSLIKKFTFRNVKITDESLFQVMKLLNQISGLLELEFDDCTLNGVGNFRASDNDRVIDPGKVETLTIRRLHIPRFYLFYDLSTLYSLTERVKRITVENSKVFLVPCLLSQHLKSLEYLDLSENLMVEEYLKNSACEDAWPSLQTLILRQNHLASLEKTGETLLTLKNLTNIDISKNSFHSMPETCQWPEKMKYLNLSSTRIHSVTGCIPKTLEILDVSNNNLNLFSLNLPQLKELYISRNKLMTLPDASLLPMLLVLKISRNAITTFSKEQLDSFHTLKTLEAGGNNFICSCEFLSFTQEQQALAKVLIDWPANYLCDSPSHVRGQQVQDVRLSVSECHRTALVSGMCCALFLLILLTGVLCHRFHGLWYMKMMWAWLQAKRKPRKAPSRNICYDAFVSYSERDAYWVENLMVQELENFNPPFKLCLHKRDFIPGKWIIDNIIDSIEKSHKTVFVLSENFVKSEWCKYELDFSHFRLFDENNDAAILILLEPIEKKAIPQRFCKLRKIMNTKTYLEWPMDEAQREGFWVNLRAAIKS

`CCCCCC/C=C\CCCCCCCCCC(=O)N[C@H]1[C@H](OC[C@H]2O[C@H](OP(=O)([O-])[O-])[C@H](NC(=O)CC(=O)CCCCCCCCCCC)[C@@H](OCCCCCCCCCC)[C@@H]2O)O[C@H](COC)[C@@H](OP(=O)([O-])[O-])[C@@H]1OCC[C@@H](CCCCCCC)OC.[Na+].[Na+].[Na+].[Na+]` [eritoran tetrasodium]: the “CXCL1/KC in LPS-stimulated corneas” value on TLR4 [1] is “significantly inhibited”. Moreover, at TLR2 [2], the “CXCL1/KC in Pam3Cys-stimulated corneas” value was “no difference”. Besides, on TLR4 [3], the LPS-induced corneal haze result was “significantly reduced”, the LPS-induced neutrophil infiltration entry was “significantly inhibited; also recorded: significantly reduced”, the “cellular infiltrate in the central corneal stroma” value is given as “minimal cellular infiltrate” and the “concentration needed to reduce neutrophil numbers by 50%” value was found to be 0.35 mg/mL. Besides, on TLR4 [3], the “effect on neutrophil numbers at concentrations lower than 1.1 mg/ml” value is recorded as “no significant effect”, the minimum inhibitory concentration worked out at 0.35 mg/mL, the “neutrophil numbers per corneal section” value is reported as “dose-dependent reduction” and the “second application after 3 h versus single treatment” value is given as “no significant difference”. Moreover, at TLR2 [4] (setting [11]), the neutrophil infiltration entry is on record as “no effect” and the total reflectivity entry is “no effect”. The Pam3Cys/TLR2-induced corneal inflammation entry at TLR2 [4] (topical pre-treatment) is “no effect”. In addition, the “TUNEL positive cells in the corneal epithelium” value with corneal epithelium (2.2 μg prior to LPS, presence or absence of LPS) was “no TUNEL positive cells”. For the same molecule, the pro-apoptotic effect result in the series with corneal epithelium (2.2 μg, corneal epithelium) is “no pro-apoptotic effect”. Also, the “Pam3Cys-induced IL-8 production” value on TLR2 [5] is on record as “no effect”. For the same molecule, at TLR2 [6], the “Pam3Cys-induced IL-8 production” value is recorded as “no effect”. The “Pam3Cys-induced IL-8 production” value at TLR2 [7] is given as “no effect”. On TLR4/MD-2, the corneal haze entry was “significantly inhibited”, the corneal thickness entry was “significantly inhibited” and the neutrophil infiltration entry is “significantly inhibited”. Moreover, the “LPS-induced IL-8 production” value at TLR4 [8] was “significantly reduced”. The “LPS-induced IL-8 production” value on TLR4 [8] (listed as Eritoran) was “dose dependent inhibition”. Further, on TLR4 [8] (macrophage cell line (U937)), the “concentration that inhibited LPS-induced IL-8” value worked out at 1 ng/mL. For the same molecule, the “LPS-induced IL-8 production” value on TLR4 [9] is given as “significantly reduced”. For the same molecule, on TLR4 [9] (listed as Eritoran), the “LPS-induced IL-8 production” value is “dose dependent inhibition”. For the same molecule, at TLR4 [9] (human corneal epithelial cells with exogenous MD-2), the “dose required to inhibit LPS-induced IL-8, relative to macrophage and neutrophil lines” value is recorded as “required higher doses”. Further, at TLR4 [10], the “LPS-induced IL-8 production” value is “significantly reduced”. In addition, on TLR4 [10] (listed as Eritoran), the “LPS-induced IL-8 production” value is “dose dependent inhibition”. In addition, the “concentration that inhibited LPS-induced IL-8” value on TLR4 [10] (neutrophil cell line (HL-60)) was 1 ng/mL.

Regarding Rhodobacter sphaeroides lipid A [RSLA], the “antagonistic activity for other Gram negative Lipid A” value with Gram negative Lipid A is on record as “pronounced antagonistic activity”. In addition, the agonist activity result with Gram negative Lipid A (on some cell types) is on record as “only minor agonist activity”.
